Assay results: ChEMBL document CHEMBL5055619, “Tetrahydrofuran-Based Transient Receptor Potential Ankyrin 1 (TRPA1) Antagonists: Ligand-Based Discovery, Activity in a Rodent Asthma Model, and Mechanism-of-Action via Cryogenic Electron Microscopy” (J Med Chem, 2021)
≈ marks a conversion by molar mass, not a printed value.

Experiments:
[1] = Metabolic stability in rat liver microsomes assessed as clearance by LC/MS-MS analysis; format: ADME, Microsome
[2] = Metabolic stability in human liver microsomes assessed as clearance by LC/MS-MS analysis; format: ADME, Microsome
[3] = Lipophilicity, logD of compound; format: physicochemical; details: octanol/water
[4] = Antagonist activity at human TRPA1 expressed in CHO cells assessed as cinnamaldehyde-induced calcium flux measured after 90 mins by FLIPR assay; format: cell-based; details: 1.5 h
[5] = Kinetic solubility of the compound; format: physicochemical; details: for solubility kinetic: read-out: Kinetic_solubility
[6] = target: Transient receptor potential cation channel subfamily A member 1 (Rattus norvegicus) (UniProt Q6RI86); assay: In vivo antagonist activity at TRPA1 in AITC-induced rat pain model assessed as nocifensive behaviour at 21.57 ratio of free plasma concentration to IC50 for rat […]; format: functional, organism-based; details: concentration not given here
Sequence of Transient receptor potential cation channel subfamily A member 1 (Rattus norvegicus) (Q6RI86 whole entry): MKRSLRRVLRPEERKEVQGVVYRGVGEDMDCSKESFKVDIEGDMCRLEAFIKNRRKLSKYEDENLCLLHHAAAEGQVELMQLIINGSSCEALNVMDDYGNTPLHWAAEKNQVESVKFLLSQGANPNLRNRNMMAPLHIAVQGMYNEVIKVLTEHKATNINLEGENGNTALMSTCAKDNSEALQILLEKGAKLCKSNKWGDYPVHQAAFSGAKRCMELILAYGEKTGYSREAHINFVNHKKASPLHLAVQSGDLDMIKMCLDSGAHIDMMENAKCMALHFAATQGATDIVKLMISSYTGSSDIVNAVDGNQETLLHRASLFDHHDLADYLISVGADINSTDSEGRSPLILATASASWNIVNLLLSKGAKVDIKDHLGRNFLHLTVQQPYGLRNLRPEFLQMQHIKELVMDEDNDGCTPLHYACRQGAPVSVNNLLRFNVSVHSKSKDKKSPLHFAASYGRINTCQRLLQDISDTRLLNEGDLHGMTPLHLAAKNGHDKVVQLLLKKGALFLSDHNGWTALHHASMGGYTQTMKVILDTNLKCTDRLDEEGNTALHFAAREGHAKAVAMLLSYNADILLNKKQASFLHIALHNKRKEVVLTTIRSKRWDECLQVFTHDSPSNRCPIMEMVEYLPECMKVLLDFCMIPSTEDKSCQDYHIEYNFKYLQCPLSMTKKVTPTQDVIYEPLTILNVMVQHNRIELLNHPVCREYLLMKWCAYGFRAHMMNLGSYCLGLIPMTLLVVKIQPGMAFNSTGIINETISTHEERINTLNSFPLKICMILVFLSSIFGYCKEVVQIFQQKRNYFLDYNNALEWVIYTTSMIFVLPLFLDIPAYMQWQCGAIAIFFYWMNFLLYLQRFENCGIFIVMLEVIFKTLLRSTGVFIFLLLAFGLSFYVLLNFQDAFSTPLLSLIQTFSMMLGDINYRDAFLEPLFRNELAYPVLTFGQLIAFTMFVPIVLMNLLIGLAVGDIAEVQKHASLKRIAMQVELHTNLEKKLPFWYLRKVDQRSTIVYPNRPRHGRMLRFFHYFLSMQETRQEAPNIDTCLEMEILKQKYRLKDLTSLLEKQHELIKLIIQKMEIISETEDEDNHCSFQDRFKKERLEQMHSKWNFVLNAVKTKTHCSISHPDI

Rattus norvegicus = species: Rattus norvegicus; assay: Antinociceptive activity against AITC-induced rat pain model assessed as nocifensive behaviour by measuring unbound concentration; format: functional, organism-based
[7] = Protein binding in human plasma; format: ADME, cell-free; details: read-out: PPB (converted)
[8] = Metabolic stability in rat hepatocytes assessed as clearance; format: ADME, cell-based, Hepatocyte
[9] = Half life in rat at 1 mg/kg; format: ADME, organism-based; details: in vivo
[10] = Oral bioavailability in rat at 1 mg/kg; format: ADME, organism-based; details: in vivo
[11] = target: Transient receptor potential cation channel subfamily A member 1 (Rattus norvegicus) (UniProt Q6RI86); assay: In vivo antagonist activity at TRPA1 in AITC-induced rat pain model assessed as nocifensive behaviour at 8 ratio of free plasma concentration to IC50 for rat […]; format: functional, organism-based
[12] = Apparent permeability across apical to basolateral side in MDCK cells; format: ADME, cell-based, Canis lupus familiaris; details: dog, read-out: permeability
[13] = target: Transient receptor potential cation channel subfamily A member 1 (Rattus norvegicus) (UniProt Q6RI86); assay: In vivo antagonist activity at TRPA1 in AITC-induced rat pain model assessed as nocifensive behaviour at 44.77 ratio of free plasma concentration to IC50 for rat […]; format: functional, organism-based; details: concentration not given here
[14] = Antagonist activity at rat TRPA1 expressed in CHO cells assessed as cinnamaldehyde-induced calcium flux measured after 90 mins by FLIPR assay; format: cell-based; details: 1.5 h
[15] = Volume of distribution at steady stare in rat at 1 mg/kg; format: ADME, organism-based; details: in vivo, read-out: Vdss
[16] = target: Transient receptor potential cation channel subfamily A member 1 (Rattus norvegicus) (UniProt Q6RI86); assay: In vivo antagonist activity at TRPA1 in AITC-induced rat pain model assessed as nocifensive behaviour at 0.76 ratio of free plasma concentration to IC50 for rat […]; format: functional, organism-based; details: concentration not given here
[17] = Unbound Volume of distribution at steady state in rat at 1 mg/kg; format: ADME, organism-based; details: in vivo
[18] = Clearance in rat at 1 mg/kg; format: ADME, organism-based; details: in vivo
[19] = target: Transient receptor potential cation channel subfamily A member 1 (Rattus norvegicus) (UniProt Q6RI86); assay: In vivo antagonist activity at TRPA1 in AITC-induced rat pain model assessed as nocifensive behaviour at 2.97 ratio of free plasma concentration to IC50 for rat […]; format: functional, organism-based; details: concentration not given here
[20] = Protein binding in rat plasma; format: ADME, cell-free; details: read-out: PPB (converted)
[21] = target: Transient receptor potential cation channel subfamily A member 1 (Rattus norvegicus) (UniProt Q6RI86); assay: In vivo antagonist activity at TRPA1 in AITC-induced rat pain model assessed as nocifensive behaviour at 1.21 ratio of free plasma concentration to IC50 for rat […]; format: functional, organism-based; details: concentration not given here
[22] = target: Transient receptor potential cation channel subfamily A member 1 (Rattus norvegicus) (UniProt Q6RI86); assay: In vivo antagonist activity at TRPA1 in AITC-induced rat pain model assessed as nocifensive behaviour at 4.45 ratio of free plasma concentration to IC50 for rat […]; format: functional, organism-based; details: concentration not given here
[23] = target: Transient receptor potential cation channel subfamily A member 1 (Rattus norvegicus) (UniProt Q6RI86); assay: In vivo antagonist activity at TRPA1 in AITC-induced rat pain model assessed as nocifensive behaviour at 0.36 ratio of free plasma concentration to IC50 for rat […]; format: functional, organism-based; details: concentration not given here
[24] = Stability in human plasma assessed as compound remaining after 4 hrs; format: ADME, cell-free; details: read-out: Stability
[25] = Stability in rat plasma assessed as compound remaining after 4 hrs; format: ADME, cell-free; details: read-out: Stability
[26] = target: Transient receptor potential cation channel subfamily A member 1 (Rattus norvegicus) (UniProt Q6RI86); assay: In vivo antagonist activity at TRPA1 in AITC-induced rat pain model assessed as nocifensive behaviour at 12.67 ratio of free plasma concentration to IC50 for rat […]; format: functional, organism-based; details: concentration not given here
[27] = target: Transient receptor potential cation channel subfamily A member 1 (Rattus norvegicus) (UniProt Q6RI86); assay: In vivo antagonist activity at TRPA1 in AITC-induced rat pain model assessed as nocifensive behaviour at 2.94 ratio of free plasma concentration to IC50 for rat […]; format: functional, organism-based; details: concentration not given here
[28] = target: Transient receptor potential cation channel subfamily A member 1 (Rattus norvegicus) (UniProt Q6RI86); assay: In vivo antagonist activity at TRPA1 in AITC-induced rat pain model assessed as nocifensive behaviour at 43.69 ratio of free plasma concentration to IC50 for rat […]; format: functional, organism-based; details: concentration not given here
[29] = target: Transient receptor potential cation channel subfamily A member 1 (Rattus norvegicus) (UniProt Q6RI86); assay: In vivo antagonist activity at TRPA1 in AITC-induced rat pain model assessed as nocifensive behaviour at 0.86 ratio of free plasma concentration to IC50 for rat […]; format: functional, organism-based; details: concentration not given here
[30] = target: Transient receptor potential cation channel subfamily A member 1 (Rattus norvegicus) (UniProt Q6RI86); assay: In vivo antagonist activity at TRPA1 in AITC-induced rat pain model assessed as nocifensive behaviour at 3.17 ratio of free plasma concentration to IC50 for rat […]; format: functional, organism-based; details: concentration not given here
[31] = target: Transient receptor potential cation channel subfamily A member 1 (Rattus norvegicus) (UniProt Q6RI86); assay: In vivo antagonist activity at TRPA1 in AITC-induced rat pain model assessed as nocifensive behaviour at 0.53 ratio of free plasma concentration to IC50 for rat […]; format: functional, organism-based; details: concentration not given here
[32] = target: Transient receptor potential cation channel subfamily A member 1 (Rattus norvegicus) (UniProt Q6RI86); assay: In vivo antagonist activity at TRPA1 in AITC-induced rat pain model assessed as nocifensive behaviour at 0.17 ratio of free plasma concentration to IC50 for rat […]; format: functional, organism-based; details: concentration not given here
[33] = target: Transient receptor potential cation channel subfamily A member 1 (Rattus norvegicus) (UniProt Q6RI86); assay: In vivo antagonist activity at TRPA1 in AITC-induced rat pain model assessed as nocifensive behaviour at 0.10 ratio of free plasma concentration to IC50 for rat […]; format: functional, organism-based; details: concentration not given here

Row | CLhep predicted [1] [mL/min/kg] | CLhep predicted [2] [mL/min/kg] | logD [3] | IC50 [4] [nM] | solubility kinetic [5] [µM] | also measured | SMILES
1 | 27 | 14 | 2.7 | 54 | – | – | O=c1c2cccnc2cnn1Cc1nc([C@H]2[C@@H]3CN(c4cc(Cl)ccn4)C[C@@H]32)no1
2 | – | – | 2.7 | 1.9 | 1.4 (≈ 0.541 µg/mL) | – | Cn1cnc2ncn(Cc3nc([C@H]4[C@@H]5C=C(c6ccccc6)C[C@@H]54)no3)c(=O)c21
3 | – | – | 2.7 | 1900 | 54 (≈ 21 µg/mL) | – | Cn1cnc2ncn(Cc3nc([C@H]4[C@@H]5C[C@H](c6ccccc6)C[C@@H]54)no3)c(=O)c21
4 | 9 | 4.3 | – | 7.6 | – | – | Cn1cnc2ncn(Cc3nc([C@@H]4CO[C@@H](c5ccc(F)cc5)C4)no3)c(=O)c21
5 | 44 | 16 | 1.3 | 14 | – | – | Cn1cnc2ncn(Cc3nn(CCCOc4cccc(Cl)c4)c(=O)o3)c(=O)c21
6 | 34 | 11 | 1.3 | 4600 | – | – | Cn1cnc2ncn(Cc3nn(CCOc4cccc(Cl)c4)c(=O)o3)c(=O)c21
7 | 28 | 5.6 | 1.2 | 20 | 120 (≈ 48.6 µg/mL) | inhibition [6]: 37%; EC50 (Rattus norvegicus): 390 nM; fraction unbound [7]: 0.334; CLhep predicted [8]: 24 mL/min/kg; half-life [9]: 1.4 h; bioavailability [10]: 53%; inhibition [11]: 20%; Papp A→B [12]: 9 ×10⁻⁶ cm/s; inhibition [13]: 100%; IC50 [14]: 18 nM; Vd [15]: 1.3 L/kg; inhibition [16]: 20%; Vduss [17]: 3.14 L/kg; clearance [18]: 17 mL/min/kg | Cn1cnc2ncn(Cc3nn(C[C@H](F)c4ccc(Cl)cc4)c(=O)o3)c(=O)c21
8 | 19 | 4.3 | 2.6 | > 20000 | – | – | Cn1cnc2ncn(Cc3nn([C@H]4CC[C@H](c5ccc(Cl)cc5)CC4)c(=O)o3)c(=O)c21
9 | – | – | 2.9 | 2.9 | – | inhibition [19]: 99%; EC50 (Rattus norvegicus): 7.9 nM; fraction unbound [7]: 0.011; fraction unbound [20]: 0.018; inhibition [21]: 64%; CLhep predicted [8]: 35 mL/min/kg; Kinetic_solubility [5]: 97 µM; half-life [9]: 6.4 h; bioavailability [10]: 20%; Papp A→B [12]: 15.5 ×10⁻⁶ cm/s; IC50 [14]: 7.9 nM; Vd [15]: 2.3 L/kg; inhibition [22]: 99%; inhibition [23]: 12%; Vduss [17]: 128 L/kg; clearance [18]: 4.5 mL/min/kg | Cn1cnc2ncn(Cc3nc([C@H]4[C@@H]5CN(c6cccc(Cl)c6)C[C@@H]54)no3)c(=O)c21
10 | 23 | 9.5 | 1.6 | 2 | – | remaining at 4 h [24]: 76%; remaining at 4 h [25]: 61% | Cn1cnc2ncn(Cc3nn([C@@H]4CO[C@@H](c5ccc(Cl)cc5)C4)c(=O)o3)c(=O)c21
11 | 36 | 12 | 2.4 | 9.6 | – | – | Cn1cnc2ncn(Cc3nn([C@@H]4CC[C@@H](c5ccc(Cl)cc5)C4)c(=O)o3)c(=O)c21
12 | 27 | 14 | 2.6 | 50 | – | – | Cc1ncn2ncn(Cc3nc([C@H]4[C@@H]5CN(c6cccc(Cl)c6)C[C@@H]54)no3)c(=O)c12
13 | 11 | 6 | 2.2 | 7.3 | – | – | Cn1cnc2ncn(Cc3nn([C@H]4C[C@H](Oc5cccc(Cl)c5)C4)c(=O)o3)c(=O)c21
14 | – | – | 1.8 | 25 | 97 (≈ 41.2 µg/mL) | EC50 (Rattus norvegicus): 220 nM; fraction unbound [7]: 0.07; fraction unbound [20]: 0.087; CLhep predicted [8]: 36 mL/min/kg; half-life [9]: 1.8 h; inhibition [26]: 48%; bioavailability [10]: 39%; Papp A→B [12]: 17.3 ×10⁻⁶ cm/s; inhibition [27]: 64%; IC50 [14]: 18 nM; Vd [15]: 1.8 L/kg; inhibition [28]: 94%; Vduss [17]: 20.7 L/kg; inhibition [29]: 59%; clearance [18]: 12 mL/min/kg | Cn1cnc2ncn(Cc3nc([C@H]4[C@@H]5CN(c6cc(Cl)ccn6)C[C@@H]54)no3)c(=O)c21
15 | 13 | 10 | 2.4 | 75 | – | – | O=c1c2cccnc2ncn1Cc1nc([C@H]2[C@@H]3CN(c4cc(Cl)ccn4)C[C@@H]32)no1
16 | 24 | 8 | 1.8 | 410 | – | – | Cn1cnc2ncn(Cc3nn([C@@H]4CC[C@@H](Oc5cccc(F)c5)C4)c(=O)o3)c(=O)c21
17 | 32 | 15 | 3 | 8.1 | 13 (≈ 5.51 µg/mL) | inhibition [30]: 87%; inhibition [31]: 63%; inhibition [32]: 36%; EC50 (Rattus norvegicus): 6.2 nM; fraction unbound [7]: 0.009; inhibition [33]: 30%; fraction unbound [20]: 0.02; CLhep predicted [8]: 43 mL/min/kg; half-life [9]: 2.5 h; bioavailability [10]: 32%; Papp A→B [12]: 20.7 ×10⁻⁶ cm/s; IC50 [14]: 8.2 nM; Vd [15]: 2.8 L/kg; Vduss [17]: 140 L/kg; clearance [18]: 15 mL/min/kg | Cc1cnn2ncn(Cc3nc([C@H]4[C@@H]5CN(c6cccc(Cl)c6)C[C@@H]54)no3)c(=O)c12
18 | 35 | 12 | 1.9 | 100 | – | IC50 [14]: 80 nM | Cn1cnc2ncn(Cc3nc(CCc4ccc(Cl)cc4)no3)c(=O)c21
19 | – | – | 2.6 | 32 | < 1 | – | Cn1cnc2ncn(Cc3nc([C@@H]4[C@@H]5Cc6c(Cl)cccc6[C@@H]54)no3)c(=O)c21
